Experimental data taken from patent US12195470B2, “7-phenoxy-N-(3-azabicyclo[3.2.1]octan-8-yl-6,7-dihydro-5H-pyrrolo[1,2-b][1,2,4]triazol-2-amine derivatives and related compounds as gamma- secretase modulators for the treatment of alzheimer's disease” (Hoffmann-La Roche Inc., priority 2018, dated 2025).

Each molecule was assayed against γ-secretase (Homo sapiens, UniProt P49768) (assay: Cellular γ-secretase assay (inhibition of Aβ42 secretion, AlphaLisa)). Details: human neuroglioma H4 cells overexpressing human APP695 Swedish double mutation, 24 h compound incubation.
Type: cell-based
Description: 2.1) Assay Procedure: Cellular γ-Secretase Assay Human neuroglioma H4 cells overexpressing human APP695 with the Swedish double mutation (K595N/M596L) were plated at 30,000 cells/well/100 μL in 96-well plates in IMDM containing 10% FCS, 0.2 mg/L Hygromycin B and incubated at 37° C., 5% CO2. 3-4 h post plating, compounds are a diluted in media and 50 μL is added as 1.5-fold concentrate to achieve the final concentration. Compound incubation is performed for 24 h. Final doses typically range from 4 μM down to 0.0013 μM in half-log steps resulting in an eight-point dose response curve. Appropriate controls using vehicle only and reference compound were applied to this assay. The final concentration of Me2SO was 0.4%. After incubation at 37° C., 5% CO2, the supernatant was subjected to quantification of secreted Aβ42 by the means of an AlphaLisa® assay kit (Human Amyloid beta 1-42 Kit, Perkin Elmer Inc.). 20 μL of the cell culture supernatant was transferred to an assay plate. Then 10 μL of a mixture of the AlphaLisa® coupled capture antibody and the biotinylated detection antibody was added and incubated for 3 h at RT while softly shaking the assay plate. After a further addition of 20 μL of the Donor beads the assay plate was incubated for 30 min at RT and constant shaking without exposure to direct light. The assay plate was then read on a Paradigm AlphaLisa® Reader using the build-in program with excitation at 680 nm and emission at 570 nm. The measured signals were then used to calculate IC50 values for inhibition of Aβ42 secretion by nonlinear regression fit analysis using XLfit 5.3 software (from IDBS Ltd).

SMILES	IC50
COc1cc(N2C[C@H]3CC[C@@H](C2)[C@@H]3Nc2nc3n(n2)CC[C@@H]3Oc2cc(F)cc(F)c2)cnn1 (single isomer, unassigned) [Example 2]	73.8 nM
Cc1cc(N2C[C@H]3CC[C@@H](C2)[C@@H]3Nc2nc3n(n2)CCC[C@@H]3Oc2cc(F)cc(Cl)c2)cnn1 (single isomer, unassigned) [Example 14]	62.7 nM
Cc1cc(N2C[C@H]3CC[C@@H](C2)[C@@H]3Nc2nc3n(n2)CC[C@@H]3Oc2cccc(Cl)c2)ncn1 (single isomer, unassigned) [Example 30]	51.9 nM
COc1cc(N2C[C@H]3CC[C@@H](C2)[C@@H]3Nc2nc3n(n2)CCC[C@H]3Oc2cc(F)cc(F)c2)cnn1 (single isomer, unassigned) [Example 9]	10.6 nM
COc1cc(N2C[C@H]3CC[C@@H](C2)[C@@H]3Nc2nc3n(n2)CC[C@H]3Oc2cc(F)cc(F)c2)cnn1 (single isomer, unassigned) [Example 1]	12.8 nM
COc1cc(N2C[C@H]3CC[C@@H](C2)[C@@H]3Nc2nc3n(n2)CCC[C@H]3Oc2ccccc2Cl)cnn1 (single isomer, unassigned) [Example 25]	15.7 nM

Second part, the molecule after the results:

IC50	SMILES
65.8 nM	Cc1cc(N2C[C@H]3CC[C@@H](C2)[C@@H]3Nc2nc3n(n2)CCCC[C@@H]3Oc2ccc(F)c(F)c2F)ncn1 (single isomer, unassigned) [Example 62]
15.6 nM	Cc1cc(N2C[C@H]3CC[C@@H](C2)[C@@H]3Nc2nc3n(n2)CC[C@H]3Oc2cc(F)cc(F)c2)ncn1 (single isomer, unassigned) [Example 39]
71.4 nM	Cc1cc(N2C[C@H]3CC[C@@H](C2)[C@@H]3Nc2nc3n(n2)CC[C@@H]3Oc2ccc(Cl)cc2)ncn1 (single isomer, unassigned) [Example 28]
21.6 nM	Cc1cc(N2C[C@H]3CC[C@@H](C2)[C@@H]3Nc2nc3n(n2)CCC[C@H]3Oc2ccc(F)cc2F)ncn1 (single isomer, unassigned) [Example 37]
